Active and inactive are the calls of the source. The rule behind the calls is not given here.
Molecular target: Ubiquitin carboxyl-terminal hydrolase 8 (Homo sapiens) (UniProt P40818)
Assay: Ubiquitin-specific protease 8 inhibitors, concentration-effect, biochemical, validation of initial actives (AID 1645862);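 note: potency reflects inhibition of USP8 cleavage of a ubiquitin rhodamine substrate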
Settings: recombinant USP8 deubiquitinase activity assay

Ubiquitin carboxyl-terminal hydrolase 8 (Homo sapiens), sequence (P40818 whole entry, looked up): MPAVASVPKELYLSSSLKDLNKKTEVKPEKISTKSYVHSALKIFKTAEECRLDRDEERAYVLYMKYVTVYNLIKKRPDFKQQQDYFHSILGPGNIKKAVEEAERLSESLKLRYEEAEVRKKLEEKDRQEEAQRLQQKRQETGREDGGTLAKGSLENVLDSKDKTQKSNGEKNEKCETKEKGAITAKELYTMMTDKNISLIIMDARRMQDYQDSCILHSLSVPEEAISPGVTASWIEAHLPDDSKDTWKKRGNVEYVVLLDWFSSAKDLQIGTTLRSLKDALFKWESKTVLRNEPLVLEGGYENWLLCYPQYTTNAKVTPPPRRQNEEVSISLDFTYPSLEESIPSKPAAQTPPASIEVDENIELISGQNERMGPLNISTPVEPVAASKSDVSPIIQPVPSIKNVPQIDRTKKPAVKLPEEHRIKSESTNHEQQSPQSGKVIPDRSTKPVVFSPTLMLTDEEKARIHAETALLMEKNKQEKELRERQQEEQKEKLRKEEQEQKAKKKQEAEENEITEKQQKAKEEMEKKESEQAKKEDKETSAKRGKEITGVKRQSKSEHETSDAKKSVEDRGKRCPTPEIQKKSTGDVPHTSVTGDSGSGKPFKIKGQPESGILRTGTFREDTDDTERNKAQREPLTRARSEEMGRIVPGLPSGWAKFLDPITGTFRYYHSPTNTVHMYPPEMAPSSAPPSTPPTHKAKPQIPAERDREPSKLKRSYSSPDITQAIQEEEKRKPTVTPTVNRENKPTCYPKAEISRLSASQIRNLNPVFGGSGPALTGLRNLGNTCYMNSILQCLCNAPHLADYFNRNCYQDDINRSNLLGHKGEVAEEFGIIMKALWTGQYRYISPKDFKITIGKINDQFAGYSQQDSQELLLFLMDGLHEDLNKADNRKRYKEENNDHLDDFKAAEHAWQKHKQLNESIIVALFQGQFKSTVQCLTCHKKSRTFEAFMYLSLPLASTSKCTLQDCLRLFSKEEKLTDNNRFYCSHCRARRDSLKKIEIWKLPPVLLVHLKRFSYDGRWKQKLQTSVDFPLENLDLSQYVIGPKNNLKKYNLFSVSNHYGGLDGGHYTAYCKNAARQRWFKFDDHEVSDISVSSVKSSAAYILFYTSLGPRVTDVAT

Structure (SMILES) | IC50
CCn1c(CNC(=O)c2cccc(C)c2)nnc1SCC(=O)N1CCc2ccccc21 | > 40 µM (inactive)
CCOc1ccc(NC(=O)Cn2c(-c3ccccc3)cc(C(C)=O)c2C)cc1 | > 40 µM (inactive)
Cc1ccc(S(=O)(=O)N2CCC3(CC2)OC(=O)Nc2ccccc23)cc1 | > 40 µM (inactive)
Cc1ccc2[nH]c3c(=O)n(Cc4ccc(N(C)C)cc4)cnc3c2c1 | 30.7 µM
O=C1C=C(O)c2c(O)cccc2C1=O | 19 µM
COc1cc(NC(=O)Cn2nc(-c3ccc(F)cc3)ccc2=O)ccc1-n1cnnn1 | > 40 µM (inactive)
O=C(c1ccc2cc[nH]c2c1)N1CCC(Nc2cccnc2)C1 (centres undefined) | > 40 µM (inactive)
CCN(CC)C(=O)c1sc(NC(=O)/C=C/c2c(F)cccc2Cl)c(C#N)c1C | > 40 µM (inactive)
COc1ccc(S(=O)(=O)NCc2ccc3c(c2)cc(C)n3C)cc1 | > 40 µM (inactive)
CC1=C(Cn2c3cccc(=O)c-3nc3ccccc32)CCC(C)(C)C1 | 1.71 µM
COc1ccc(-c2nc(-c3cn(-c4ccccc4)nn3)no2)c(OC)c1 | > 40 µM (inactive)
CCc1ccc([C@@H]2c3c(C)nn(C)c3NC(=O)[C@H]2NC(=O)c2ccc(OC)c(OC)c2)cc1 | > 40 µM (inactive)
O=C(O)CCCCCN1C(=O)CC(c2ccc(Cl)cc2)CC1=O | 31.8 µM
COc1ccc(CC(=O)Nc2c(NCc3ccccc3)c3ccccc3oc2=O)cc1 | 38.2 µM
COc1cccc(C2c3[nH]c4ccccc4c3C[C@@H]3C(=O)N(CC(O)c4ccccc4)CC(=O)N23)c1 (some centres undefined) | > 40 µM (inactive)
CSCCC(NC(=O)c1ccccc1)c1nc2ccccc2n1CC(=O)Nc1ccccc1 (centres undefined) | > 40 µM (inactive)
CCCCCCCCCC(CCCCCCCCCC(=O)O)O[C@H]1O[C@@H](COC(C)=O)[C@H](O)[C@@H](OC(=O)CC(=O)O)[C@H]1O (some centres undefined) | > 40 µM (inactive)
O[C@H]1[C@H](NCc2cccc(C(F)(F)F)c2)[C@@H](c2cncnc2)C[C@H]1O | > 40 µM (inactive)
COc1ccccc1CNC(=O)CCCCn1c(=O)c2ccccc2n(Cc2ccc(C)cc2)c1=O | > 40 µM (inactive)
O=C(CSc1ccc(-c2ccccc2)nn1)Nc1ccc(F)c([N+](=O)[O-])c1 | > 40 µM (inactive)
Cc1cccc(NC(=O)Nc2ccc(C)n(CC(=O)Nc3ccc(C)c(C)c3)c2=O)c1 | > 40 µM (inactive)
CSc1cccc(NC(=O)C2C3C=CC4(O3)C2C(=O)N(CCc2ccccc2)C4C(=O)NC2CCCCC2)c1 (centres undefined) | > 40 µM (inactive)

Structure (SMILES) | IC50
O=C(Cn1cc(C(=O)c2ccccc2)c(=O)c2cc(F)ccc21)Nc1ccc2c(c1)OCCO2 | > 40 µM (inactive)
Cc1ccc(NC(=O)c2cc(-c3cccnc3)n[nH]2)cc1F | > 40 µM (inactive)
COc1ccc(CNC(=O)CN2C(=O)CC(c3ccccc3)=Nc3ccccc32)cc1 | > 40 µM (inactive)
Cc1ccc(Nc2nc(O)c(CC(=O)Nc3cccc(Cl)c3C)s2)cc1C | > 40 µM (inactive)
N#C/C(=C\c1ccc(OCc2cccc(C(=O)O)c2)cc1)c1ccc(F)cc1 | > 40 µM (inactive)
COc1cccc(NC(=O)c2cn(-c3cc(N4CCCC4)ncn3)cn2)c1 | > 40 µM (inactive)
Cc1cccc(NC(=O)CSc2nnc(NC(=O)c3ccc4ccccc4c3)s2)c1 | > 40 µM (inactive)
Cc1ccc(S(=O)(=O)NCc2ccc(C(=O)NCCc3ccc(S(N)(=O)=O)cc3)cc2)cc1 | > 40 µM (inactive)
COc1cccc(C(=O)Nc2nc(-c3nnn(-c4ccc(C)c(F)c4)c3C)ns2)c1 | > 40 µM (inactive)
Cc1csc(NC(=O)c2c[nH]c3ccc(F)cc3c2=O)n1 | > 40 µM (inactive)
COc1ccc(Cl)cc1NC(=O)COC(=O)c1cc2ccccc2oc1=O | 24.2 µM
COCCCN1CCS(=O)(=O)c2c(Cl)c(F)nc(Oc3ccc(C#N)cc3)c21 | > 40 µM (inactive)
O=C(Nc1cccc2ccccc12)N1CCC(c2nc3c(nnn3Cc3ccc(F)cc3)c(=O)[nH]2)CC1 | > 40 µM (inactive)
Cc1nc2c(-c3ccc(Cl)cc3)c[nH]n2c(=O)c1Cc1ccccc1 | > 40 µM (inactive)
Cc1ccc(NC(=O)c2cc(-c3ccccn3)nc3c(Cl)cccc23)nc1 | > 40 µM (inactive)
O=C(Oc1ccc2cc(Br)ccc2c1)c1ccncc1 | > 40 µM (inactive)
Cc1ccc(Cn2c(=O)c3ncccc3n(CC(=O)NCc3ccc(F)cc3)c2=O)cc1 | > 40 µM (inactive)
COc1ccc(Cn2c(=O)[nH]c3cc(C(=O)NCCCN4CCN(c5cccc(Cl)c5)CC4)ccc3c2=O)cc1 | > 40 µM (inactive)
O=C(Nc1cc(F)c2nc(N3CCCC3)ccc2c1)c1ccco1 | > 40 µM (inactive)
CSc1ccc(C(=O)Nc2nc(-c3ccncc3)cs2)cc1 | > 40 µM (inactive)
N#Cc1ccc(NC(=O)Nc2cccn(Cc3c(F)cccc3Cl)c2=O)cc1 | > 40 µM (inactive)
COc1ccc(NS(=O)(=O)c2cc(NC(=O)CC(=O)c3ccc([N+](=O)[O-])cc3)ccc2Cl)cc1 | > 40 µM (inactive)

From PubChem BioAssay AID1645862 (Buhrlage Lab, Dana-Farber Cancer Institute and Novartis …, 2021)
